Ki data for eight molecules are collected here from BindingDB's records for doi:10.1124/mol.64.1.143 (Abbott Laboratories, 2003).

“And” between values parts separate entries of the source, which are not always exact repeats. Equal values may be shown once.

For the assay, the target named is T1, Calcium-activated potassium channel subunit beta (Sus scrofa, UniProt C0KY85).
T1 sequence (C0KY85 whole entry): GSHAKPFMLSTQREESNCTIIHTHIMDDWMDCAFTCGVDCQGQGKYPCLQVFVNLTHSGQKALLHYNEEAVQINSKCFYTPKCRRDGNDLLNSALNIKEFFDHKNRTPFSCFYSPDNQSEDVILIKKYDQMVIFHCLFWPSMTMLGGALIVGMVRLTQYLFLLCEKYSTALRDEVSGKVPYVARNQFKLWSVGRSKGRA

Broadly, the Ki is the dissociation constant of the complex between target and ligand, obtained from inhibition or displacement. On to `C[C@](O)(C(=O)Nc1ccc(C(=O)c2ccccc2)cc1)C(F)(F)F` [ZD-6169], for which the Ki was 630 nM and 451 nM.
With `O=C1COCC2=NC3=C([C@H](c4ccc(F)c(I)c4)C12)S(=O)(=O)CC3` (stereo partly drawn) [A-312110] the figure was 4.9 nM; with `CC(N/C(=N\C#N)Nc1ccncc1)C(C)(C)C` (stereo not drawn) [NSC_4826], 251 nM and 104 nM.
Then `N#Cc1cccc(C2C3=C(CCCC3=O)N=C3CCCC(=O)C32)c1` (stereo not drawn) [zm244085], with 2770 nM and 671 nM; and `CCC(C)(C)NC(=NC#N)Nc1cccnc1` [NSC_43345], with 20.6 nM and 10.5 nM; and `CC1=NS(=O)(=O)c2cc(Cl)ccc2N1` [NSC_3019], with greater than 10000 nM.
With `CCOc1ccccc1N=C(C[N+](=O)[O-])NC(C)C(C)(C)C` (stereo not drawn) [CAS_3038059] the figure was 41.3 nM and 16 nM; with `CC1(C)Oc2ccc(C#N)cc2C(N2CCCC2=O)C1O` (stereo not drawn) [NSC_93504], 542 nM and 157 nM.
